What was measured:
Ccl2 = test: Chemokine gene expression in spinal cord tissue of SCI mice; type: in vivo, mouse; conditions: C57B6 SCI animals at 14-dpi, vs vehicle; N=3, ANOVA p=0.091
Procedure: (§1) Additional studies were performed using tissues harvested from the mice for which behavioral testing data showing effects of boldine on Basso Mouse Scale and ladder rung walk test were collected. RNA-seq analysis was performed on spinal cord segments from SCI mice at 14-dpi treated with boldine or vehicle starting at 4-dpi (N=3 for each). Differentially expressed genes (DEGs) were clustered by their gene ontology (GO) and enrichment of GO terms was tested using a Fisher's exact test (GeneSCF v1.1-p2). Enriched DEGs were involved in pathways related to neutrophil activation and aggregation, inflammatory responses and astrocyte development.
(§2) Genes from a list of the top DEGs from the RNA-seq analysis were considered and tested for differences in gene expression of pro-inflammatory chemokines Ccl2 and Ccl3 between vehicle and boldine treated spinal cord tissues from C57B6 SCI animals at 14-dpi. Laminectomy-only (Sham) animals as were used as controls.

Ccl3 = test: as above; type: in vivo, mouse; conditions: C57B6 SCI animals at 14-dpi, vs vehicle; N=3, ANOVA p=0.085
Procedure: as §1, §2

[1] = system: CCL2 mRNA in LPS astrocytes; test: mRNA expression after LPS-induced inflammatory response in astrocytic primary cell cultures; type: cell-based; conditions: compared to vehicle-treated LPS astrocytes
Procedure: To model effects of boldine on release of chemokines and other mediators, changes in mRNA expression after lipopolysaccharide (LPS)-induced inflammatory responses were analyzed using astrocytic primary cell cultures.

[2] = system: neurite outgrowth marker GAP-43; test: Immunofluorescence staining of injured spinal cords; type: in vivo, mouse; conditions: injured spinal cord transverse sections, SCI mice at 14-dpi, vs vehicle
Procedure: Immunofluorescence staining was performed on injured spinal cords of vehicle and boldine treated SCI mice at 14-dpi. 30-micron transverse sections were used to evaluate differences in the labeling of the neurite outgrowth marker GAP-43.

[3] = system: C57BL6 mice, moderate contusion spinal cord injury (SCI) at T9-T10; test: Ladder rung walk test (LRWT) after moderate contusion SCI; type: in vivo, mouse; conditions: oral, twice daily starting at 4-dpi; at 13-dpi; vehicle-treated SCI mice 83%; N=5
Procedure: (§3) FIGS. 1A-C show the effects of boldine on locomotor functional recovery of C57BL6 mice after moderate spinal cord injury (SCI) at the interspace between thoracic vertebrae T9 and T10.
(§4) Function was determined by behavioral testing using both the Basso Mouse Scale (BMS) score (FIG. 1A) and the ladder rung walk test (LRWT) (FIG. 1B). While sham mice had normal BMS scores a few days after laminectomy, the BMS scores for contusion-SCI mice were much lower. […] (N=5; ANOVA *p<0.05 and **p<0.005 respectively).

CCL2 mRNA = test: Thalamus mRNA levels by qPCR after contusion SCI; type: in vivo, mouse; conditions: compared to vehicle-treated animals after contusion SCI; FIG. 3 (thalamus); N=3
Procedure: (§5) FIGS. 2A-D show plots of mRNA levels of Cx43 (2A), NLRP3 (2B), ASC (2C), and caspase-1 (2D) in the hippocampus of sham mice and those having contusion spinal cord injury (SCI) with and without boldine treatment. mRNA levels in the hippocampus were determined by qPCR at 13 dpi using tissues from mice that underwent laminectomy (Sham) or moderate (50 kdyne) contusion SCI. ((*p<0.05 by one-way ANOVA, N=3 per group).
(§6) FIGS. 3A-B are plots showing that boldine normalizes spinal cord injury (SCI)-induced elevation of IL-1B mRNA levels in the thalamus. mRNA levels were determined as described with reference to FIG. 2. (A) IL-1β; (B) CCL2. (*p<0.05 by ANOVA, N=3).
(§7) In rats, a spinal cord injury (SCI) can result in cognitive deficits that are associated with activation in brain regions linked to pain processing and cognition of microglia and astrocytes as well as associated with upregulation of a gene involved in inflammation (Wu et al. 2013; Wu et al. 2014). Such changes may drive central pain in neuropathic pain syndromes. To determine whether boldine mitigates such changes, mRNA expression of Cx43 and genes involved in inflammasome assembly and activity were determined in mouse brains. While SCI increased caspase-1 in the hippocampus. […] These studies indicate that boldine can reduce neuropathic pain following spinal cord injury (SCI) associated with reductions in brain and spinal cord of expression of pro-inflammatory cytokines and chemokines linked to pathological pain.

IL-1β mRNA = test: Thalamus mRNA levels by qPCR after contusion SCI; type: in vivo, mouse
Procedure: as §5, §6, §7

caspase-1 mRNA = test: Hippocampus mRNA levels by qPCR after contusion SCI; type: in vivo, mouse; conditions: contusion SCI mice, 13 dpi, N=3
Procedure: as §5, §7

[4] = system: C57BL6 mice, moderate contusion spinal cord injury (SCI) at T9-T10; test: Basso Mouse Scale (BMS) open-field locomotor function after moderate contusion SCI; type: in vivo; conditions: oral, twice daily starting at 4-dpi; at 13 dpi; vs vehicle-treated SCI mice; N=5
Procedure: as §3, §4

With `COc1cc2c(cc1O)CC1c3c(cc(O)c(OC)c3-2)CCN1C` (racemic) [boldine] the “Ccl2 gene expression in spinal cord tissue” value (Ccl2) was “apparent decrease which did not reach our threshold for significance”, the “Ccl3 gene expression in spinal cord tissue” value (Ccl3) was “apparent decrease which did not reach our threshold for significance” and the “reduction of mRNA levels of CCL2” value [1] was 38%. The GAP43 immunofluorescence [2] was “dramatically increased”, the LRWT incorrect steps [3] was 13% and the “reduction of mRNA levels of CCL2” value (CCL2 mRNA) was 47.2%. The “reduction of mRNA levels of IL-10” value (IL-1β mRNA; compared to vehicle-treated animals after contusion SCI, FIG. 3 (thalamus), N=3) was 65.5%, the “SCI-induced elevation of IL-1B mRNA levels in the thalamus” value (IL-1β mRNA; contusion SCI mice, qPCR, N=3 (FIG. 3 legend)) was “normalizes” and the “SCI-induced increase of caspase-1 mRNA in the hippocampus” value (caspase-1 mRNA) was “appeared to be corrected”. The BMS scores [4] was “significantly increased”.
